Source: PubChem BioAssay AID248 (DTP/NCI, 2004)
Where “and” joins values, the source holds several entries; their conditions need not be identical. Equal values may be shown once. Toxic doses and inconclusive results are not listed. Cut-off read from the data, not from the text of the source: active = T/C of 150% or more; inactive = T/C below 125%.

System: L1210 leukemia ip in BDF1 mice, survival T/C
Test: NCI In Vivo Anticancer Drug Screen. Data for tumor model L1210 Leukemia (intraperitoneal) in B6D2F1 (BDF1) mice
Settings: endpoint: mean survival time, higher = longer survival
Outline: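 Transplanted-tumor mice were given test agent; controls received vehicle only. Survival readings from the two groups were divided (treated over control).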

[1] = dose: 100.0 mg/kg/injection, schedule: Q01DX009 (ip), vehicle: saline with Tween-80
[2] = dose: 200.0 mg/kg/injection, schedule: Q01DX009 (ip), vehicle: saline with Tween-80
[3] = dose: 200.0 mg/kg/injection, schedule: Q01DX001 (ip), vehicle: saline
[4] = dose: 100.0 mg/kg/injection, schedule: Q04DX003 (ip), vehicle: saline with Tween-80
[5] = dose: 200.0 mg/kg/injection, schedule: Q04DX003 (ip), vehicle: saline with Tween-80
[6] = dose: 400.0 mg/kg/injection, schedule: Q01DX009 (ip), vehicle: saline with Tween-80
[7] = dose: 400.0 mg/kg/injection, schedule: Q04DX003 (ip), vehicle: saline with Tween-80
[8] = dose: 75.0 mg/kg/injection, schedule: Q01DX001 (ip), vehicle: other
[9] = dose: 150.0 mg/kg/injection, schedule: Q01DX001 (ip), vehicle: other
[10] = dose: 100.0 mg/kg/injection, schedule: Q04DX002 (ip), vehicle: saline with Tween-80
[11] = dose: 25.0 mg/kg/injection, schedule: Q04DX002 (ip), vehicle: Klucel (hydroxypropylcellulose) (HPC)
[12] = dose: 50.0 mg/kg/injection, schedule: Q04DX002 (ip), vehicle: Klucel (hydroxypropylcellulose) (HPC)
[13] = dose: 100.0 mg/kg/injection, schedule: Q04DX002 (ip), vehicle: Klucel (hydroxypropylcellulose) (HPC)
[14] = dose: 100.0 mg/kg/injection, schedule: Q01DX001 (ip), vehicle: saline with Tween-80
[15] = dose: 75.0 mg/kg/injection, schedule: Q01DX001 (ip), vehicle: saline
[16] = dose: 150.0 mg/kg/injection, schedule: Q01DX001 (ip), vehicle: saline
[17] = dose: 300.0 mg/kg/injection, schedule: Q01DX001 (ip), vehicle: saline
[18] = dose: 400.0 mg/kg/injection, schedule: Q04DX002 (ip), vehicle: Klucel (hydroxypropylcellulose) (HPC)

Measured: T/C

CC(O)C(NCNC(=O)C1=C(O)C2(O)C(=O)C3=C(O)c4c(O)cccc4C(C)(O)C3CC2C(N(C)C)C1=O)C(=O)O (stereo unspecified)
inactive: dose: 1.0 mg/kg/injection, schedule: Q01DX Z (ip), vehicle: saline 110 % of control | dose: 4.0 mg/kg/injection, schedule: Q01DX Z (ip), vehicle: saline 100 % of control | dose: 14.0 mg/kg/injection, schedule: Q01DX Z (ip), vehicle: saline 91 % of control | dose: 15.0 mg/kg/injection, schedule: Q01DX Z (ip), vehicle: saline 96 % of control | dose: 28.0 mg/kg/injection, schedule: Q01DX Z (ip), vehicle: saline 102 % of control | dose: 56.0 mg/kg/injection, schedule: Q01DX Z (ip), vehicle: saline 91 % of control | dose: 60.0 mg/kg/injection, schedule: Q01DX Z (ip), vehicle: saline 98 % of control | dose: 100.0 mg/kg/injection, schedule: Q04DX003 (ip), vehicle: saline 98 % of control | dose: 120.0 mg/kg/injection, schedule: Q01DX Z (ip), vehicle: saline 93 % of control | dose: 200.0 mg/kg/injection, schedule: Q04DX003 (ip), vehicle: saline 100 % of control | dose: 224.0 mg/kg/injection, schedule: Q01DX Z (ip), vehicle: saline 91 % of control | dose: 240.0 mg/kg/injection, schedule: Q01DX Z (ip), vehicle: saline 95 % of control and 98 % of control | dose: 400.0 mg/kg/injection, schedule: Q04DX003 (ip), vehicle: saline 109 % of control | dose: 448.0 mg/kg/injection, schedule: Q01DX Z (ip), vehicle: saline 93 % of control | dose: 480.0 mg/kg/injection, schedule: Q01DX Z (ip), vehicle: saline 107 % of control

O=C1OC(c2ccccc2)(c2ccccc2)c2sccc21
inactive: dose: 50.0 mg/kg/injection, schedule: Q01DX009 (ip), vehicle: saline with Tween-80 91 % of control | [1] 102 % of control | [2] 94 % of control

CCOC(=O)c1nnc(SC)nc1SC
inactive: dose: 75.0 mg/kg/injection, schedule: Q01DX001 (ip), vehicle: alcohol 100 % of control | dose: 150.0 mg/kg/injection, schedule: Q01DX001 (ip), vehicle: alcohol 108 % of control

CCC(C)c1ccc(O)c(CN(CCO)CCO)c1 (stereo unspecified)
inactive: dose: 100.0 mg/kg/injection, schedule: Q01DX001 (ip), vehicle: saline 105 % of control | [3] 101 % of control

Cc1cccc(Cl)c1NC(=O)Nc1c(C)n(C)n(-c2ccccc2)c1=O
inactive: dose: 100.0 mg/kg/injection, schedule: Q01DX009 (ip), vehicle: Klucel (hydroxypropylcellulose) (HPC) 100 % of control | dose: 200.0 mg/kg/injection, schedule: Q01DX009 (ip), vehicle: Klucel (hydroxypropylcellulose) (HPC) 102 % of control | dose: 400.0 mg/kg/injection, schedule: Q01DX009 (ip), vehicle: Klucel (hydroxypropylcellulose) (HPC) 100 % of control

Cc1ccc(C)c(-n2c(-c3ccc(Br)cc3)csc2=NC(=O)c2ccccc2F)c1
inactive: [1] 102 % of control | [4] 101 % of control | [2] 101 % of control | [5] 98 % of control | [6] 93 % of control | [7] 102 % of control

Cc1ccccc1CC1c2[nH]c3ccccc3c2CCN1C (stereo unspecified)
inactive: [8] 92 % of control | [9] 86 % of control

COC(=O)c1n[nH]c(C2OCC3OC(C)(C)OC32)c1I (stereo unspecified)
inactive: dose: 100.0 mg/kg/injection, schedule: Q01DX005 (ip), vehicle: saline 98 % of control | dose: 200.0 mg/kg/injection, schedule: Q01DX005 (ip), vehicle: saline 98 % of control

C[N+](C)(C)CCOC(=O)c1ccc(CCl)cc1
inactive: dose: 25.0 mg/kg/injection, schedule: Q04DX002 (ip), vehicle: saline with Tween-80 113 % of control | dose: 50.0 mg/kg/injection, schedule: Q04DX002 (ip), vehicle: saline with Tween-80 102 % of control | dose: 100.0 mg/kg/injection, schedule: Q04DX002 (ip), vehicle: other 98 % of control | [10] 110 % of control

CCOC(=O)CCC(=O)N(C)CCc1ccc(OC)c(OC)c1
inactive: [11] 117 % of control | [12] 101 % of control | [13] 101 % of control

CCC1CCC(NC(C)=O)CC1 (stereo unspecified)
inactive: dose: 25.0 mg/kg/injection, schedule: Q01DX001 (ip), vehicle: saline with Tween-80 96 % of control | dose: 50.0 mg/kg/injection, schedule: Q01DX001 (ip), vehicle: saline with Tween-80 108 % of control | [14] 94 % of control

CCN(CC)C(=O)c1ccncc1
inactive: dose: 50.0 mg/kg/injection, schedule: Q01DX009 (ip), vehicle: saline 101 % of control | dose: 100.0 mg/kg/injection, schedule: Q01DX009 (ip), vehicle: saline 106 % of control and 88 % of control | dose: 200.0 mg/kg/injection, schedule: Q01DX009 (ip), vehicle: saline 97 % of control | dose: 400.0 mg/kg/injection, schedule: Q01DX009 (ip), vehicle: saline 111 % of control

CCP(=O)(CC(=O)O)c1ccccc1 (stereo unspecified)
inactive: [10] 109 % of control | dose: 200.0 mg/kg/injection, schedule: Q04DX002 (ip), vehicle: saline with Tween-80 103 % of control | dose: 400.0 mg/kg/injection, schedule: Q04DX002 (ip), vehicle: saline with Tween-80 103 % of control

O=C(O)c1c(Cl)ccc([N+](=O)[O-])c1Cl
inactive: dose: 100.0 mg/kg/injection, schedule: Q04DX003 (ip), vehicle: Klucel (hydroxypropylcellulose) (HPC) 88 % of control | dose: 200.0 mg/kg/injection, schedule: Q04DX003 (ip), vehicle: Klucel (hydroxypropylcellulose) (HPC) 95 % of control | dose: 400.0 mg/kg/injection, schedule: Q04DX003 (ip), vehicle: Klucel (hydroxypropylcellulose) (HPC) 92 % of control

Cc1cccc(N(CCOC(=O)Nc2cccc(Cl)c2)CCOC(=O)Nc2cccc(Cl)c2)c1
inactive: [3] 100 % of control | dose: 400.0 mg/kg/injection, schedule: Q01DX001 (ip), vehicle: saline 89 % of control

CCC(C(O)c1cccs1)C(O)(C(F)(F)F)C(F)(F)F (stereo unspecified)
inactive: [1] 95 % of control | [4] 95 % of control | [2] 116 % of control | [5] 95 % of control | [6] 97 % of control | [7] 93 % of control

CCCCCCN(CCCCCC)C(=S)[S-].CCCCCCN(CCCCCC)C(=S)[S-].[Zn]
inactive: [15] 112 % of control | [16] 104 % of control | [17] 103 % of control

Cc1ccc(-c2c(C)c(-c3ccccc3)c(-c3ccccc3)c(C)c2-c2ccccc2)cc1C
inactive: [14] 104 % of control | dose: 200.0 mg/kg/injection, schedule: Q01DX001 (ip), vehicle: saline with Tween-80 100 % of control | dose: 400.0 mg/kg/injection, schedule: Q01DX001 (ip), vehicle: saline with Tween-80 100 % of control

COc1cccc(CNC(C)(C)CO)c1
inactive: [15] 95 % of control | [16] 102 % of control | [17] 104 % of control

COc1ccc(/C=C2\C=Nc3ccccc32)cc1
inactive: [13] 94 % of control | dose: 200.0 mg/kg/injection, schedule: Q04DX002 (ip), vehicle: Klucel (hydroxypropylcellulose) (HPC) 97 % of control | [18] 108 % of control

COc1ccc(-c2n[nH]c(C(F)(F)F)c2N=NN(C)C)cc1OC
inactive: [8] 93 % of control | [9] 94 % of control | dose: 300.0 mg/kg/injection, schedule: Q01DX001 (ip), vehicle: other 91 % of control

CCOC(=O)c1ccc(N(CCC(=O)CBr)C(C)=O)cc1
inactive: dose: 5.0 mg/kg/injection, schedule: Q01DX001 (ip), vehicle: carboxymethylcellulose (CMC) 97 % of control | dose: 10.0 mg/kg/injection, schedule: Q01DX001 (ip), vehicle: carboxymethylcellulose (CMC) 100 % of control | dose: 20.0 mg/kg/injection, schedule: Q01DX001 (ip), vehicle: carboxymethylcellulose (CMC) 100 % of control | dose: 40.0 mg/kg/injection, schedule: Q01DX001 (ip), vehicle: carboxymethylcellulose (CMC) 97 % of control

Oc1cc(Br)c(O)c(Br)c1
inactive: [11] 109 % of control | [12] 102 % of control | [13] 97 % of control | [18] 90 % of control
